Test results as given in US20250248957A1, “CELL DIFFERENTIATION” (JOHN HEMMING TRADING LTD, priority 2022, published 2025).

Columns and labels:
Type in all cases: in vivo, human
[1] = tested on: hair follicle stem cells; test: Hair growth on the scalp of a subject after citrate administration
Description: Citrate was administered to a subject in the morning as magnesium and potassium citrate and at lunch time as 10 ml of lemon juice to provide a total daily citrate dose of 1.85 g. The antioxidant melatonin was administered at night to provide a total nightly dose of between 10 mg and 470 mg. Citrate was administered daily for four weeks. Citrate was administered to the subject in the morning as magnesium and potassium citrate, at lunch time as 10 ml of lemon juice and as calcium and sodium citrate with a total daily citrate dose of 3.95 g. The antioxidant melatonin was administered at night to provide a total nightly dose of between 10 mg and 470 mg.

[2] = tested on: muscle stem cells (satellite cells); test: Muscle mass of the subject after citrate administration; conditions: total daily citrate dose 3.95 g
Description: (§1) Citrate was administered to the subject in the morning as magnesium and potassium citrate, at lunch time as 10 ml of lemon juice and as calcium and sodium citrate with a total daily citrate dose of 3.95 g. The antioxidant melatonin was administered at night to provide a total nightly dose of between 10 mg and 470 mg.

[3] = tested on: C reactive protein (CRP); test: CRP level in the blood of the subject
Description: as §1
CRP levels were reduced from 0.5 mg/L to <0.3 mg/L (0.3 mg/L represents the lower limit of detection) following two months of citrate administration. A subsequent measurement of CRP using equipment with higher sensitivity identified a CRP level of below 0.16 mg/L. The Inventor believes that reduced CRP levels result from increased differentiation of senescent stem cells and reduced production of senescent cells via cell dedifferentiation.

[4] = Blood glucose over 24 hour periods by continuous glucose monitor (CGM); conditions: 2-40 g citrate daily, 10 months; two non-consecutive days; FIGS. 5(d),(e)
Description: (§2) Citrate was administered to the subject with a total daily citrate dose of between 2 and 40 g for a period of 10 months. Blood glucose levels were measured over separate 24 hour periods using a continuous glucose monitor (CGM) purchased from Dexcom.

[5] = Concentration of key biomarkers in the blood (HbA1c, folate, glucose)
Description: as §2
The Inventor also measured haemoglobin A1C (HbA1c) which can be used as a diagnostic marker for diabetes. An HbA1c concentration of >6.4% is indicative of diabetes, and a concentration of 5.7% to 6.4% is indicative of prediabetes.

[6] = Kidney function markers (Cystatin C, creatinine)
Description: The subject's creatinine levels reached as low as […].

[7] = Facial skin quality (number of blemishes); conditions: 2-40 g citrate daily for 6 weeks; before: 25; FIG. 6
Description: Administration of citrate was also found to improve facial skin quality following administration of between 2 and 40 g of citrate daily for a period of 6 weeks.

[8] = tested on: precancerous spot; test: Appearance of a precancerous spot on the skin; conditions: about 3 g citrate daily for about 3 months; FIG. 7

O=C(O)CC(O)(CC(=O)O)C(=O)O [citrate]
hair growth with added red or infrared radiation ([1]; topical red or infrared radiation 600-900 nm in addition to citrate): further improved hair growth
growth of new hairs in areas of the scalp which had suffered hair loss ([1]; total daily citrate dose 1.85 g for four weeks, melatonin at night, FIG. 1): growth of new hairs was observed
growth of thicker and darker hairs ([1]; total daily citrate dose 3.95 g, melatonin at night, compared to Example 1, FIGS. 2-4): growth of hairs which were thicker and darker
muscle mass [2]: An increase in muscle mass
CRP level in blood ([3]; after two months of citrate, baseline 0.5 mg/L, lower limit of detection 0.3 mg/L): < 0.3 mg/L
CRP level, subsequent measurement with higher sensitivity equipment ([3]; subsequent measurement): below 0.16 mg/L
blood glucose peaks over 24 hour period (CGM) [4]: no significant glucose peaks occurred
HbA1c level maintained ([5]; 2-40 g citrate daily): less than 5.7%
HbA1c level, lowest reached ([5]; 2-40 g citrate daily): 4.18%
Glucose concentration in the blood ([5]; following 6 months of citrate administration, reference range 3.3-5.6): 4.53 mmol/L
HbA1C in the blood ([5]; following 6 months of citrate administration, reference range 4-6): 4.18%
creatinine level, lowest reached ([6]; 2-40 g citrate daily, 10 months): 62 mmol/L
Cystatin C level ([6]; following 3 months of citrate, 2-40 g daily, baseline 0.98 mg/L): 0.89 mg/L
number of facial blemishes [7]: 20
appearance of a precancerous spot on the skin [8]: reduce the appearance of a precancerous spot
